ChEMBL document CHEMBL3885881, “DrugMatrix”

Organism: Rattus norvegicus
Experiment: DrugMatrix - Regimen: Daily Repeat
Assay type: toxicity, organism-based, Sprague-Dawley
Design: regimen Daily Repeat, gender Male, age 6-8 weeks
Conditions: in vivo, sc, route subcutaneous, […]; for ABSOLUTE BASOPHIL / ABSOLUTE EOSINOPHIL / ABSOLUTE LYMPHOCYTE / ABSOLUTE MONOCYTE / ABSOLUTE SEGMENTED NEUTROPHIL / BASOPHIL / EOSINOPHIL / ERYTHROCYTE COUNT / HEMATOCRIT / HEMOGLOBIN / LEUKOCYTE COUNT / LYMPHOCYTE / MEAN CORPUSCULAR HEMOGLOBIN / MEAN CORPUSCULAR HEMOGLOBIN CONCENTRATION / MEAN CORPUSCULAR VOLUME / MONOCYTE / NEUTROPHIL / NUCLEATED RED BLOOD CELLS / PLATELET COUNT: tissue Blood; for ALANINE AMINOTRANSFERASE / ALBUMIN / ALKALINE PHOSPHATASE / ASPARTATE AMINOTRANSFERASE / BLOOD UREA NITROGEN / CARBON DIOXIDE / CHLORIDE / CHOLESTEROL / CREATINE PHOSPHOKINASE / CREATININE / GLUCOSE / LACTATE DEHYDROGENASE / LIPASE / PHOSPHORUS / POTASSIUM / SODIUM / TOTAL BILIRUBIN / TOTAL PROTEIN / URIC ACID: tissue Plasma
[1] = 24 mg/kg, 72 h, dose level High, time 3 day
[2] = 24 mg/kg, 120 h, dose level High, time 5 day
[3] = 72 h, dose 9.6 mg/Kg, dose level Low, time 3 day
[4] = 120 h, dose 9.6 mg/Kg, dose level Low, time 5 day

CCCCNc1ccc(C(=O)OCCN(C)C)cc1 [TETRACAINE]
ABSOLUTE BASOPHIL [1]: 0 CELLS/uL | ABSOLUTE EOSINOPHIL [1]: 116 CELLS/uL | ABSOLUTE LYMPHOCYTE [1]: 16844.33 CELLS/uL | ABSOLUTE MONOCYTE [1]: 146.67 CELLS/uL | ABSOLUTE SEGMENTED NEUTROPHIL [1]: 1826.33 CELLS/uL | BASOPHIL [1]: 0% | EOSINOPHIL [1]: 0.67% | ERYTHROCYTE COUNT [1]: 5.64 x10E6/uL | HEMATOCRIT [1]: 36.43% | HEMOGLOBIN [1]: 14.5 G/DL | LEUKOCYTE COUNT [1]: 18.93 x10E3/uL | LYMPHOCYTE [1]: 89% | MEAN CORPUSCULAR HEMOGLOBIN [1]: 25.67 pg | MEAN CORPUSCULAR HEMOGLOBIN CONCENTRATION [1]: 39.83 G/DL | MEAN CORPUSCULAR VOLUME [1]: 64.53 fL | MONOCYTE [1]: 0.67% | NEUTROPHIL [1]: 9.67% | NUCLEATED RED BLOOD CELLS [1]: 0.33 /100WBC | PLATELET COUNT [1]: 1264.67 x10E3/uL | ALANINE AMINOTRANSFERASE [1]: 68.67 u/L | ALBUMIN [1]: 4.23 G/DL | ALKALINE PHOSPHATASE [1]: 328 u/L | ASPARTATE AMINOTRANSFERASE [1]: 81 u/L | BLOOD UREA NITROGEN [1]: 17 mg/dL | CARBON DIOXIDE [1]: 22.67 mmol/L | CHLORIDE [1]: 104 MEQ/L | CHOLESTEROL [1]: 77 mg/dL | CREATINE PHOSPHOKINASE [1]: 175.67 u/L | CREATININE [1]: 0.27 mg/dL | GLUCOSE [1]: 177.33 mg/dL | LACTATE DEHYDROGENASE [1]: 88.67 u/L | LIPASE [1]: 9.67 u/L | PHOSPHORUS [1]: 12.97 mg/dL | POTASSIUM [1]: 6.72 MEQ/L | SODIUM [1]: 147.97 MEQ/L | TOTAL BILIRUBIN [1]: 0.27 mg/dL | TOTAL PROTEIN [1]: 6.03 G/DL | URIC ACID [1]: 1.53 mg/dL | ABSOLUTE BASOPHIL [2]: 0 CELLS/uL | ABSOLUTE EOSINOPHIL [2]: 49.33 CELLS/uL | ABSOLUTE LYMPHOCYTE [2]: 12917.33 CELLS/uL | ABSOLUTE MONOCYTE [2]: 97.33 CELLS/uL | ABSOLUTE SEGMENTED NEUTROPHIL [2]: 1669.33 CELLS/uL | BASOPHIL [2]: 0% | EOSINOPHIL [2]: 0.33% | ERYTHROCYTE COUNT [2]: 5.38 x10E6/uL | HEMATOCRIT [2]: 33.97% | HEMOGLOBIN [2]: 13.67 G/DL | LEUKOCYTE COUNT [2]: 14.73 x10E3/uL | LYMPHOCYTE [2]: 87.67% | MEAN CORPUSCULAR HEMOGLOBIN [2]: 25.47 pg | MEAN CORPUSCULAR HEMOGLOBIN CONCENTRATION [2]: 40.3 G/DL | MEAN CORPUSCULAR VOLUME [2]: 63.2 fL | MONOCYTE [2]: 0.67% | NEUTROPHIL [2]: 11.33% | NUCLEATED RED BLOOD CELLS [2]: 0.33 /100WBC | PLATELET COUNT [2]: 1410.33 x10E3/uL | ALANINE AMINOTRANSFERASE [2]: 58.33 u/L | ALBUMIN [2]: 3.93 G/DL | ALKALINE PHOSPHATASE [2]: 329 u/L | ASPARTATE AMINOTRANSFERASE [2]: 92.67 u/L | BLOOD UREA NITROGEN [2]: 14.67 mg/dL | CARBON DIOXIDE [2]: 23 mmol/L | CHLORIDE [2]: 104.67 MEQ/L | CHOLESTEROL [2]: 71 mg/dL | CREATINE PHOSPHOKINASE [2]: 172 u/L | CREATININE [2]: 0.22 mg/dL | GLUCOSE [2]: 160.67 mg/dL | LACTATE DEHYDROGENASE [2]: 83.67 u/L | LIPASE [2]: 9.67 u/L | PHOSPHORUS [2]: 12.47 mg/dL | POTASSIUM [2]: 6.53 MEQ/L | SODIUM [2]: 146.2 MEQ/L | TOTAL BILIRUBIN [2]: 0.23 mg/dL | TOTAL PROTEIN [2]: 5.73 G/DL | URIC ACID [2]: 1.73 mg/dL | ABSOLUTE BASOPHIL [3]: 0 CELLS/uL | ABSOLUTE EOSINOPHIL [3]: 226.67 CELLS/uL | ABSOLUTE LYMPHOCYTE [3]: 14925.33 CELLS/uL | ABSOLUTE MONOCYTE [3]: 512.67 CELLS/uL | ABSOLUTE SEGMENTED NEUTROPHIL [3]: 768.67 CELLS/uL | BASOPHIL [3]: 0% | EOSINOPHIL [3]: 1.67% | ERYTHROCYTE COUNT [3]: 5.36 x10E6/uL | HEMATOCRIT [3]: 34.5% | HEMOGLOBIN [3]: 13.5 G/DL | LEUKOCYTE COUNT [3]: 16.43 x10E3/uL | LYMPHOCYTE [3]: 90.67% | MEAN CORPUSCULAR HEMOGLOBIN [3]: 25.17 pg | MEAN CORPUSCULAR HEMOGLOBIN CONCENTRATION [3]: 39.17 G/DL | MEAN CORPUSCULAR VOLUME [3]: 64.4 fL | MONOCYTE [3]: 2.33% | NEUTROPHIL [3]: 5.33% | NUCLEATED RED BLOOD CELLS [3]: 0.33 /100WBC | PLATELET COUNT [3]: 1368.67 x10E3/uL | ALANINE AMINOTRANSFERASE [3]: 52.33 u/L | ALBUMIN [3]: 4.1 G/DL | ALKALINE PHOSPHATASE [3]: 338.33 u/L | ASPARTATE AMINOTRANSFERASE [3]: 87.67 u/L | BLOOD UREA NITROGEN [3]: 15 mg/dL | CARBON DIOXIDE [3]: 22.67 mmol/L | CHLORIDE [3]: 104.67 MEQ/L | CHOLESTEROL [3]: 79.67 mg/dL | CREATINE PHOSPHOKINASE [3]: 530.33 u/L | CREATININE [3]: 0.16 mg/dL | GLUCOSE [3]: 187 mg/dL | LACTATE DEHYDROGENASE [3]: 122.67 u/L | LIPASE [3]: 9.33 u/L | PHOSPHORUS [3]: 13.8 mg/dL | POTASSIUM [3]: 5.89 MEQ/L | SODIUM [3]: 147.2 MEQ/L | TOTAL BILIRUBIN [3]: 0.2 mg/dL | TOTAL PROTEIN [3]: 5.73 G/DL | URIC ACID [3]: 1.9 mg/dL | ABSOLUTE BASOPHIL [4]: 0 CELLS/uL | ABSOLUTE EOSINOPHIL [4]: 0 CELLS/uL | ABSOLUTE LYMPHOCYTE [4]: 14217 CELLS/uL | ABSOLUTE MONOCYTE [4]: 0 CELLS/uL | ABSOLUTE SEGMENTED NEUTROPHIL [4]: 2349.67 CELLS/uL | BASOPHIL [4]: 0% | EOSINOPHIL [4]: 0% | ERYTHROCYTE COUNT [4]: 5.59 x10E6/uL | HEMATOCRIT [4]: 35.87% | HEMOGLOBIN [4]: 14.33 G/DL | LEUKOCYTE COUNT [4]: 16.57 x10E3/uL | LYMPHOCYTE [4]: 85.67% | MEAN CORPUSCULAR HEMOGLOBIN [4]: 25.6 pg | MEAN CORPUSCULAR HEMOGLOBIN CONCENTRATION [4]: 39.97 G/DL | MEAN CORPUSCULAR VOLUME [4]: 64.13 fL | MONOCYTE [4]: 0% | NEUTROPHIL [4]: 14.33% | NUCLEATED RED BLOOD CELLS [4]: 0.33 /100WBC | PLATELET COUNT [4]: 1151 x10E3/uL | ALANINE AMINOTRANSFERASE [4]: 58 u/L | ALBUMIN [4]: 4.1 G/DL | ALKALINE PHOSPHATASE [4]: 278.67 u/L | ASPARTATE AMINOTRANSFERASE [4]: 76.33 u/L | BLOOD UREA NITROGEN [4]: 17.67 mg/dL | CARBON DIOXIDE [4]: 23.33 mmol/L | CHLORIDE [4]: 103.67 MEQ/L | CHOLESTEROL [4]: 76.33 mg/dL | CREATINE PHOSPHOKINASE [4]: 262.33 u/L | CREATININE [4]: 0.16 mg/dL | GLUCOSE [4]: 153.67 mg/dL | LACTATE DEHYDROGENASE [4]: 205 u/L | LIPASE [4]: 9.67 u/L | PHOSPHORUS [4]: 12.83 mg/dL | POTASSIUM [4]: 6.7 MEQ/L | SODIUM [4]: 147.8 MEQ/L | TOTAL BILIRUBIN [4]: 0.23 mg/dL | TOTAL PROTEIN [4]: 5.73 G/DL | URIC ACID [4]: 1.53 mg/dL
